The values below come from patent publication US7064120B2, “Tricyclic pyridyl carboxamides and derivatives thereof tocolytic oxytocin receptor antagonists” (Wyeth, priority 2001, dated 2006).

SMILES strings stand for the structures.

Usually inhibition stands for the relative decrease from the control value, in per cent.

The first assay concerns the target T1, human oxytocin receptor (Homo sapiens, UniProt P30559).
T1 construct: host or cells: CHO cells, stably transfected (pcDNA3.1 vector)
T1 sequence (P30559 1-389): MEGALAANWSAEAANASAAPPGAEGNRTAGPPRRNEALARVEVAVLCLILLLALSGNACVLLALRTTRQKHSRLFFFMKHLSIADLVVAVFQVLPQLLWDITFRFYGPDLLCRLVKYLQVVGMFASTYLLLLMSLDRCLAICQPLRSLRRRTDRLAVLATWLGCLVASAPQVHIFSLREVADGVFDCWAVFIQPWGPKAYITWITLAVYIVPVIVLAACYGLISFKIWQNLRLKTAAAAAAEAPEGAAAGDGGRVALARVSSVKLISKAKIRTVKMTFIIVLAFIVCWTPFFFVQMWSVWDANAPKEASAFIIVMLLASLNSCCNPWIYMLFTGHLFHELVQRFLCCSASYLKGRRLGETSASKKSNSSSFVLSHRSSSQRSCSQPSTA
The experiment in a line: Oxytocin binding in CHO cell membranes expressing human oxytocin receptors ([3H]oxytocin radioligand binding). As to conditions: 100 nM. The essentials:
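CHO membranes expressing human oxytocin receptor (25–50 μg protein/well) incubated 60 min at room temperature with [3H]oxytocin in Tris-HCl pH 7.4 buffer with MgCl2, BSA and protease inhibitors. Filtration and scintillation counting; reported as % inhibition at a stated concentration or nM IC50.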
`Cc1cc(C(=O)N2Cc3ccc(C(=O)NCCc4ccccn4)n3Cc3ccccc32)ccc1-c1ccccc1C(F)(F)F` [Example 61, 10-{[2-Methyl-2′-trifluoromethyl=[1,1′-biphenyl]-4-yl]carbonyl}-N-[2-(2-pyridinyl)ethyl]-10,11-dihydro-5H-pyrrolo[2,1-c][1,4]benzodiazepine-3-carboxamide]: the “OT % inhibition @ 100 nM” value is reported as 26%. With `COc1cc(C(=O)N2Cc3ccc(C(=O)N4CCN(c5ccncc5)CC4)n3Cc3ccccc32)ccc1-c1ccccc1C` [Example 118], the “OT % inhibition @ 100 nM” value was 83%.

On to `COc1cccc(-c2ccc(C(=O)N3Cc4ccc(C(=O)N(C)Cc5cccnc5)n4Cc4ccccc43)cc2OC)c1` [Example 110], for which the “OT % inhibition @ 100 nM” value worked out at 94%.

Staying with this assay, now noted: 100 nM, read-out: OT % inhibition @ 100 nM.
In the case of `Cc1ccccc1-c1ccc(C(=O)N2Cc3ccc(C(=O)NCCc4ccccn4)n3Cc3ccccc32)cc1` [Example 53, 10-[(2′-Methyl-[1,1′-biphenyl]-4-yl)carbonyl]-N-[2-(2-pyridinyl)ethyl]-10,11-dihydro-5H-pyrrolo[2,1-c][1,4]benzodiazepine-3-carboxamide], the inhibition at 0.1 µM worked out at 6%. Same read-out and setting: for `COc1cc(-c2ccccc2C)c(Cl)cc1C(=O)N1Cc2ccc(C(=O)NCc3ccccn3)n2Cc2ccccc21` [Example 29, 10-[(6-Chloro-3-methoxy-2′-methyl-[1,1′-biphenyl]-4-yl)carbonyl]-N-(2-pyridinylmethyl)-10,11-dihydro-5H-pyrrolo[2,1-c][1,4]benzodiazepine-3-carboxamide] the value was 42%.

Regarding `COc1cc(-c2ccccc2C)c(Cl)cc1C(=O)N1Cc2ccc(C(=O)NCc3cccnc3)n2Cc2ccccc21` [Example 42, 10-[(6-Chloro-3-methoxy-2′-methyl-[1,1′-biphenyl]-4-yl)carbonyl]-N-(3-pyridinylmethyl)-10,11-dihydro-5H-pyrrolo[2,1-c][1,4]benzodiazepine-3-carboxamide], the inhibition at 0.1 µM is 33%. For `COc1cccc(-c2cc(OC)c(C(=O)N3Cc4ccc(C(=O)N(C)Cc5cccnc5)n4Cc4ccccc43)cc2Cl)c1` [Example 108, 10-[(6-Chloro-3,3′-dimethoxy-[1,1′-biphenyl]-4-yl)carbonyl]-N-methyl-N-(3-pyridinylmethyl)-10,11-dihydro-5H-pyrrolo[2,1-c][1,4]benzodiazepine-3-carboxamide], the inhibition at 0.1 µM was 83%. Still for that read-out and setting: next, `COc1cc(-c2ccccc2C)c(Cl)cc1C(=O)N1Cc2ccc(C(=O)N3CCCCC3c3cccnc3)n2Cc2ccccc21` (stereo not shown) [Example 140, {10-[(6-Chloro-3-methoxy-2′-methyl-[1,1′-biphenyl]-4-yl)carbonyl]-10,11-dihydro-5H-pyrrolo[2,1-c][1,4]benzodiazepin-3-yl}[2-(3-pyridinyl)-1-piperidinyl]methanone]: 95%. Consider `Cc1ccccc1-c1ccc(C(=O)N2Cc3ccc(C(=O)N4CCN(c5ccncc5)CC4)n3Cc3ccccc32)cc1C` [Example 114, {10-[(2,2′-Dimethyl-[1,1′-biphenyl]-4-yl)carbonyl]-10,11-dihydro-5H-pyrrolo[2,1-c][1,4]benzodiazepin-3-yl}[4-(4-pyridinyl)-1-piperazinyl]methanone], for which the inhibition at 0.1 µM came out at 94%. As for `COc1cc(C(=O)N2Cc3ccc(C(=O)N(C)Cc4cccnc4)n3Cc3ccccc32)ccc1-c1cccc2ccccc12` [Example 109, 10-[3-Methoxy-4-(naphthalen-1-yl)benzoyl]-N-methyl-N-(3-pyridinylmethyl)-10,11-dihydro-5H-pyrrolo[2,1-c][1,4]benzodiazepine-3-carboxamide], the inhibition at 0.1 µM is 70%. `Cc1cc(C(=O)N2Cc3ccc(C(=O)NCc4ccccn4)n3Cc3ccccc32)ccc1-c1ccccc1C(F)(F)F` [Example 35, 10-{[2-Methyl-2′-trifluoromethyl-[1,1′-biphenyl]-4-yl]carbonyl}-N-(2-pyridinylmethyl)-10,11-dihydro-5H-pyrrolo[2,1-c][1,4]benzodiazepine-3-carboxamide]: the inhibition at 0.1 µM worked out at 27%. Turning to `COc1cccc(-c2ccc(C(=O)N3Cc4ccc(C(=O)NCCc5ccccn5)n4Cc4ccccc43)cc2OC)c1` [Example 59, 10-[(2,3′-Dimethoxy-[1,1′-biphenyl]-4-yl)carbonyl]-N-[2-(2-pyridinyl)ethyl]-10,11-dihydro-5H-pyrrolo[2,1-c][1,4]benzodiazepine-3-carboxamide], the inhibition at 0.1 µM is 40%. Take `COc1ccccc1-c1ccc(C(=O)N2Cc3ccc(C(=O)N4CCN(c5ccncc5)CC4)n3Cc3ccccc32)cc1` [Example 116, {10-[(2′-Methoxy-[1,1′-biphenyl]-4-yl)carbonyl]-10,11-dihydro-5H-pyrrolo[2,1-c][1,4]benzodiazepin-3-yl}[4-(4-pyridinyl)-1-piperazinyl]methanone]: the inhibition at 0.1 µM was 101%. `CN(Cc1cccnc1)C(=O)c1ccc2n1Cc1ccccc1N(C(=O)c1ccc(-c3cccc4ccccc34)cc1Cl)C2` [Example 111, 10-[2-Chloro-4-(naphthalen-1-yl)benzoyl]-N-methyl-N-(3-pyridinylmethyl)-10,11-dihydro-5H-pyrrolo[2,1-c][1,4]benzodiazepine-3-carboxamide]: the inhibition at 0.1 µM was 36%. Regarding `COc1cccc(-c2cc(OC)c(C(=O)N3Cc4ccc(C(=O)NCc5cccnc5)n4Cc4ccccc43)cc2Cl)c1` [Example 43, 10-[(6-Chloro-3,3′-dimethoxy-[1,1′-biphenyl]-4-yl)carbonyl]-N-(3-pyridinylmethyl)-10,11-dihydro-5H-pyrrolo[2,1-c][1,4]benzodiazepine-3-carboxamide], the inhibition at 0.1 µM was 18%.

For `COc1cccc(-c2cc(OC)c(C(=O)N3Cc4ccc(C(=O)N5CCN(c6ccncc6)CC5)n4Cc4ccccc43)cc2Cl)c1` [Example 120, {10-[(6-Chloro-3,3′-dimethoxy-[1,1′-biphenyl]-4-yl)carbonyl]-10,11-dihydro-5H-pyrrolo[2,1-c][1,4]benzodiazepin-3-yl}[4-(4-pyridinyl)-1-piperazinyl]methanone], the inhibition at 0.1 µM was 67%. `COc1cccc(-c2cc(OC)c(C(=O)N3Cc4ccc(C(=O)N(C)CCc5ccncc5)n4Cc4ccccc43)cc2Cl)c1` [Example 133, 10-[(6-Chloro-3,3′-dimethoxy-[1,1′-biphenyl]-4-yl)carbonyl]-N-methyl-N-[2-(4-pyridinyl)ethyl]-10,11-dihydro-5H-pyrrolo[2,1-c][1,4]benzodiazepine-3-carboxamide]: the inhibition at 0.1 µM stood at 87%.

As for `Cc1ccccc1-c1ccc(C(=O)N2Cc3ccc(C(=O)NCCc4ccccn4)n3Cc3ccccc32)cc1C` [Example 50, 10-[(2,2′-Dimethyl-[1,1′-biphenyl]-4-yl)carbonyl]-N-[2-(2-pyridinyl)ethyl]-10,11-dihydro-5H-pyrrolo[2,1-c][1,4]benzodiazepine-3-carboxamide], the inhibition at 0.1 µM stood at 67%.

With `Cc1ccccc1-c1ccc(C(=O)N2Cc3ccc(C(=O)N(C)CCc4ccncc4)n3Cc3ccccc32)cc1` [Example 130, N-Methyl-10-[(2′-methyl-[1,1′-biphenyl]-4-yl)carbonyl]-N-[2-(4-pyridinyl)ethyl]-10,11-dihydro-5H-pyrrolo[2,1-c][1,4]benzodiazepine-3-carboxamide], the inhibition at 0.1 µM is 0%. Same read-out and setting: for `COc1cc(C(=O)N2Cc3ccc(C(=O)N4CCN(c5ccncc5)CC4)n3Cc3ccccc32)ccc1-c1cccc2ccccc12` [Example 121, {10-[3-Methoxy-4-(naphthalen-1-yl)benzoyl]-10,11-dihydro-5H-pyrrolo[2,1-c][1,4]benzodiazepin-3-yl}[4-(4-pyridinyl)-1-piperazinyl]methanone] the value was 57%. Still for that read-out and setting: next, `Cc1cc(C(=O)N2Cc3ccc(C(=O)N4CCCCC4c4cccnc4)n3Cc3ccccc32)ccc1-c1ccccc1C(F)(F)F` (stereo not shown) [Example 142, (10-{[2-Methyl-2′-trifluoromethyl-[1,1′-biphenyl]-4-yl]carbonyl}-10,11-dihydro-5H-pyrrolo[2,1-c][1,4]benzodiazepin-3-yl)[2-(3-pyridinyl)-1-piperidinyl]methanone]: 93%; `COc1ccccc1-c1ccc(C(=O)N2Cc3ccc(C(=O)N(C)CCc4ccncc4)n3Cc3ccccc32)cc1` [Example 129, 10-[(2′-Methoxy-[1,1′-biphenyl]-4-yl)carbonyl]-N-methyl-N-[2-(4-pyridinyl)ethyl]-10,11-dihydro-5H-pyrrolo[2,1-c][1,4]benzodiazepine-3-carboxamide]: 98%. Consider `COc1ccccc1-c1ccc(C(=O)N2Cc3ccc(C(=O)N4CCCCC4c4cccnc4)n3Cc3ccccc32)cc1` (stereo not shown) [Example 139, {10-[(2′-Methoxy-[1,1′-biphenyl]-4-yl)carbonyl]-10,11-dihydro-5H-pyrrolo[2,1-c][1,4]benzodiazepin-3-yl}[2-(3-pyridinyl)-1-piperidinyl]methanone], for which the inhibition at 0.1 µM stood at 96%. In the case of `Cc1ccccc1-c1ccc(C(=O)N2Cc3ccc(C(=O)N(C)CCc4ccncc4)n3Cc3ccccc32)cc1C` [Example 127, 10-[(2,2′-Dimethyl-[1,1′-biphenyl]-4-yl)carbonyl]-N-methyl-N-[2-(4-pyridinyl)ethyl]-10,11-dihydro-5H-pyrrolo[2,1-c][1,4]benzodiazepine-3-carboxamide], the inhibition at 0.1 µM came out at 102%. Regarding `COc1ccccc1-c1ccc(C(=O)N2Cc3ccc(C(=O)NCCc4ccccn4)n3Cc3ccccc32)cc1C` [Example 49, 10-[(2′-Methoxy-2-methyl-[1,1′-biphenyl]-4-yl)carbonyl]-N-[2-(2-pyridinyl)ethyl]-10,11-dihydro-5H-pyrrolo[2,1-c][1,4]benzodiazepine-3-carboxamide], the inhibition at 0.1 µM was determined as 58%.
